Measured values taken from US8426437B2, “Pyrroloquinoline derivatives and their use as protein kinases inhibitors” (Pierre Fabre Medicament, priority 2005, dated 2013).
Counter-ions that a name gives are not always drawn.

Target: T1, RET (Homo sapiens, UniProt P07949)
T1 construct: purchased Upstate 14-570MG
Experiment: Inhibition of RET kinase activity, recombinant RET method (Kinase-Glo)
Type: biochemical
Settings: RET 2 μg/ml, poly-EY4 substrate, 20 μM ATP, two hours at 30° C.
Method: The inhibition of the kinase activity of the compounds of the invention is assessed by measuring their IC50 on RET.
where: • Y is the value of the luminescence • X is the logarithm of the concentration of the compound • Bottom is the minimum Y value • Top is the maximum Y value • LogIC50 is the value of X when Y is 50% from Top—Bottom.
The quantity of RET required is 2 μg/ml.
The following buffer is used for dilution of RET: 20 mM MOPS/NaOH pH7.0, 1 mM EDTA, 5% glycerol, 0.01% Brij35 (Sigma B4184), 0.1% 2-mercaptoethanol, 1 mg/ml BSA (Sigma A3059-10G).
The dilution of the compounds of the invention is distributed so as to obtain a scale of final concentrations between 10 nM and 30 μM.
After incubation of the reaction mixture for two hours at 30° C., the level of ATP that remains is assayed using the Kinase-Glo Luminescent Kinase Assay (Promega #V6712) according to the conditions recommended by the supplier. The luminescence induced is read in a plate reader (Envision-Perkin Elmer).

T1 sequence (P07949 29-1114): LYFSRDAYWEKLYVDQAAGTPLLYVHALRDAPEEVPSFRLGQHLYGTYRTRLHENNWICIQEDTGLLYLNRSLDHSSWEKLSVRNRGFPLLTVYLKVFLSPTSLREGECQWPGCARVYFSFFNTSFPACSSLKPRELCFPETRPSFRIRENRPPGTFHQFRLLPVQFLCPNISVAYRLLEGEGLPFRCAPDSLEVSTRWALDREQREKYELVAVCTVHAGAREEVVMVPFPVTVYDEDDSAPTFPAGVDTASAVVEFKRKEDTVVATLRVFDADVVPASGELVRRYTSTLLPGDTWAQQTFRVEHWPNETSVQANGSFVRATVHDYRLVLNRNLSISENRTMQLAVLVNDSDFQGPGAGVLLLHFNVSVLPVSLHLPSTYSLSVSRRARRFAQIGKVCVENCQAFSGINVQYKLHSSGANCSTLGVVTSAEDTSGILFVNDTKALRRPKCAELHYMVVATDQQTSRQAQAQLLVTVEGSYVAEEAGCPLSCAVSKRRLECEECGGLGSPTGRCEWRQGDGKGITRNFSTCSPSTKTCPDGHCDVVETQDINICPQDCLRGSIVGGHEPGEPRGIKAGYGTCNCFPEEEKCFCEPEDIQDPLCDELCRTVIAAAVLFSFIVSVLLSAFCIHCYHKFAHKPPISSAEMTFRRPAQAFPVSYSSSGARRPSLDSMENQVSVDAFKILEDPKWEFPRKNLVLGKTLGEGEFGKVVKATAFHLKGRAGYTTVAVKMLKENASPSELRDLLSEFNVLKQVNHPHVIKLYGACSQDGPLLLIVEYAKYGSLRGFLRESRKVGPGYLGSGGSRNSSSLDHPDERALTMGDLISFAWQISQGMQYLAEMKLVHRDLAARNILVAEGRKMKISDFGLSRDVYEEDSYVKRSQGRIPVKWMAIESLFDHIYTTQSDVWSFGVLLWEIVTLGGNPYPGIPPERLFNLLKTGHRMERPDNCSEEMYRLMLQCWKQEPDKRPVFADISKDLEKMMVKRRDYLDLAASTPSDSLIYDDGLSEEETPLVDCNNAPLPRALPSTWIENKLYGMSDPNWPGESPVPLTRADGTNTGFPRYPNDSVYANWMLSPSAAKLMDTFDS

IC50 [µM] | Compound
1 to 10 | COC(=O)c1c[nH]c2c(=O)[nH]c3ccc(S(=O)(=O)NN4CCCCC4)cc3c12 [Compound 191, 4-Oxo-8-(piperidin-1-ylsulfamoyl)-4,5-dihydro-3H-pyrrolo[2,3-c]quinoline-1-methyl carboxylate]
0.1 to 1 | CCOC(=O)c1c[nH]c2c(=O)[nH]c3ccc(S(=O)(=O)Nc4cc(F)cc(F)c4)cc3c12 [Compound 19, 8-(3,5-Difluorophenylsulfamoyl)-4-oxo-4,5-dihydro-3H-pyrrolo[2,3-c]quinoline-1-ethyl carboxylate]
10 to 100 | O=C(NCc1ccncc1)c1c[nH]c2c(=O)[nH]c3ccccc3c12 [Compound 86, N-(Pyridin-4-ylmethyl)-4-oxo-4,5-dihydro-3H-pyrrolo[2,3-c]quinoline-1-carboxamide]
1 to 10 | O=C(OC1CCCC1)c1c[nH]c2c(=O)[nH]c3ccc(I)cc3c12 [Compound 211, 8-Iodo-4-oxo-4,5-dihydro-3H-pyrrolo[2,3-c]quinoline-1-cyclopentyl carboxylate]
1 to 10 | CCOC(=O)c1c[nH]c2c(=O)[nH]c3ccc(-c4csc(NNc5ccccc5)n4)cc3c12 [Compound 280, 4-Oxo-8-[2-(N′-phenyl-hydrazino)-thiazol-4-yl]-4,5-dihydro-3H-pyrrolo[2,3-c]quinoline-1-ethyl carboxylate]
10 to 100 | CN(c1ccc(F)cc1)S(=O)(=O)c1ccc2[nH]c(=O)c3[nH]cc(C(=O)OCCCN)c3c2c1 [Compound 107, Trifluoroacetate of 8-[(4-fluorophenyl)-methyl-sulfamoyl]-4-oxo-4,5-dihydro-3H-pyrrolo[2,3-c]quinoline-1-3-aminopropyl carboxylate]
10 to 100 | O=C(O)c1c[nH]c2c(=O)[nH]c3ccccc3c12 [Compound 75, 4-oxo-4,5-dihydro-3H-pyrrolo[2,3-c]quinoline-1-carboxylic acid]
1 to 10 | CCOC(=O)c1c[nH]c2c(=O)[nH]c3cc(F)ccc3c12 [Compound 215, 7-Fluoro-4-oxo-4,5-dihydro-3H-pyrrolo[2,3-c]quinoline-1-ethyl carboxylate]
0.1 to 1 | CCOC(=O)c1c[nH]c2c(=O)[nH]c3ccc(-c4ccccc4Cl)cc3c12 [Compound 229, 8-(2-Chlorophenyl)-4-oxo-4,5-dihydro-3H-pyrrolo[2,3-c]quinoline-1-ethyl carboxylate]
0.1 to 1 | CCOC(=O)c1c[nH]c2c(=O)[nH]c3ccc(-c4ccno4)cc3c12 [Compound 281, 8-Isoxazol-5-yl-4-oxo-4,5-dihydro-3H-pyrrolo[2,3-c]quinoline-1-ethyl carboxylate]
1 to 10 | CCOC(=O)c1c[nH]c2c(=O)[nH]c3ccc(-c4ccccc4)cc3c12 [Compound 228, 4-Oxo-8-phenyl-4,5-dihydro-3H-pyrrolo[2,3-c]quinoline-1-ethyl carboxylate]
0.1 to 1 | CCOC(=O)c1c[nH]c2c(=O)[nH]c3ccc(C#CCN(C)C)cc3c12 [Compound 203, 8-(3-Dimethylamino-prop-1-ynyl)-4-oxo-4,5-dihydro-3H-pyrrolo[2,3-c]quinoline-1-ethyl carboxylate]
0.1 to 1 | CCOC(=O)c1c[nH]c2c(=O)[nH]c3ccc(-c4ccn(C)n4)cc3c12 [Compound 283, 8-(1-Methyl-1H-pyrazol-3-yl)-4-oxo-4,5-dihydro-3H-pyrrolo[2,3-c]quinoline-1-ethyl carboxylate]
1 to 10 | CCOC(=O)c1c[nH]c2c(=O)[nH]c3ccc(NS(=O)(=O)c4ccc(OC)cc4)cc3c12 [Compound 50, 8-(4-Methoxy-benzenesulfonylamino)-4-oxo-4,5-dihydro-3H-pyrrolo[2,3-c]quinoline-1-ethyl carboxylate]
0.1 to 1 | CCOC(=O)c1c[nH]c2c(=O)[nH]c3ccc(-c4cccc(NS(C)(=O)=O)c4)cc3c12 [Compound 235, 8-(3-Methanesulfonylaminophenyl)-4-oxo-4,5-dihydro-3H-pyrrolo[2,3-c]quinoline-1-ethyl carboxylate]
1 to 10 | COC(=O)c1c[nH]c2c(=O)[nH]c3ccc(S(=O)(=O)NN4CCN(C)CC4)cc3c12 [Compound 193, 8-(4-Methyl-piperazin-1-ylsulfamoyl)-4-oxo-4,5-dihydro-3H-pyrrolo[2,3-c]quinoline-1-methyl carboxylate]
10 to 100 | O=C(NCCCO)c1c[nH]c2c(=O)[nH]c3ccccc3c12 [Compound 85, N-(3-Hydroxy-propyl)-4-oxo-4,5-dihydro-3H-pyrrolo[2,3-c]quinoline-1-carboxamide]
0.1 to 1 | CCOC(=O)c1c[nH]c2c(=O)[nH]c3ccc(-c4ccccc4NS(C)(=O)=O)cc3c12 [Compound 232, 8-(2-Methanesulfonylaminophenyl)-4-oxo-4,5-dihydro-3-pyrrolo[2,3-c]quinoline-1-ethyl carboxylate]
10 to 100 | CNC(=O)c1c[nH]c2c(=O)[nH]c3ccccc3c12 [Compound 88, N-(Methyl)-4-oxo-4,5-dihydro-3H-pyrrolo[2,3-c]quinoline-1-carboxamide]
0.1 to 1 | CCOC(=O)c1c[nH]c2c(=O)[nH]c3ccc(-c4csc(CSc5ccccc5)n4)cc3c12 [Compound 276, 4-Oxo-8-(2-phenylsulfanylmethyl-thiazol-4-yl)-4,5-dihydro-3H-pyrrolo[2,3-c]quinoline-1-ethyl carboxylate]
10 to 100 | O=C(NCc1ccccc1)c1c[nH]c2c(=O)[nH]c3ccccc3c12 [Compound 83, N-(Benzyl)-4-oxo-4,5-dihydro-3H-pyrrolo[2,3-c]quinoline-1-carboxamide]
1 to 10 | CCOC(=O)c1c[nH]c2c(=O)[nH]c3ccc(NC(=O)c4ccccc4)cc3c12 [Compound 60, 8-Benzoylamino-4-oxo-4,5-dihydro-3H-pyrrolo[2,3-c]quinoline-1-ethyl carboxylate]
1 to 10 | CCOC(=O)c1c[nH]c2c(=O)[nH]c3cc(Cl)ccc3c12 [Compound 216, 7-Chloro-4-oxo-4,5-dihydro-3H-pyrrolo[2,3-c]quinoline-1-ethyl carboxylate]
0.1 to 1 | CCOC(=O)c1c[nH]c2c(=O)[nH]c3ccc(S(=O)(=O)Cc4ccccn4)cc3c12 [Compound 196, 4-Oxo-8-(pyridin-2-ylmethanesulfonyl)-4,5-dihydro-3H-pyrrolo[2,3-c]quinoline-1-ethyl carboxylate]
0.1 to 1 | CCOC(=O)c1c[nH]c2c(=O)[nH]c3ccc(S(=O)(=O)NC4CCCCCC4)cc3c12 [Compound 31, 8-Cycloheptylsulfamoyl-4-oxo-4,5-dihydro-3H-pyrrolo[2,3-c]quinoline-1-ethyl carboxylate]
1 to 10 | CCOC(=O)c1c[nH]c2c(=O)[nH]c3ccc(-c4csc(C)n4)cc3c12 [Compound 278, 8-(2-Methyl-thiazol-4-yl)-4-oxo-4,5-dihydro-3H-pyrrolo[2,3-c]quinoline-1-ethyl carboxylate]
0.1 to 1 | CCOC(=O)c1c[nH]c2c(=O)[nH]c3ccc(S(=O)(=O)Nc4ccccc4OC)cc3c12 [Compound 7, 8-(2-Methoxy-phenylsulfamoyl)-4-oxo-4,5-dihydro-3H-pyrrolo[2,3-c]quinoline-1-ethyl carboxylate]
1 to 10 | CCOC(=O)c1c[nH]c2c(=O)[nH]c3ccc(-c4ccc(OC)nc4)cc3c12 [Compound 260, 8-(6-Methoxy-pyridin-3-yl)-4-oxo-4,5-dihydro-3H-pyrrolo[2,3-c]quinoline-1-ethyl carboxylate]
0.1 to 1 | CCCOC(=O)c1c[nH]c2c(=O)[nH]c3cc(Cl)c(S(=O)(=O)N(C)C)cc3c12 [Compound 189, 7-Chloro-8-dimethylsulfamoyl-4-oxo-4,5-dihydro-3H-pyrrolo[2,3-c]quinoline-1-propyl carboxylate]

Compound | IC50 [µM]
CN(c1ccc(F)cc1)S(=O)(=O)c1ccc2[nH]c(=O)c3[nH]cc(C(=O)OCCCNC(=O)OC(C)(C)C)c3c2c1 [Compound 108, 3-tert-Butoxycarbonylamino-propyl 8-[(4-fluorophenyl)-methyl-sulfamoyl]-4-oxo-4,5-dihydro-3H-pyrrolo[2,3-c]quinoline-1-carboxylate] | 10 to 100
C#CCN(CCNC)S(=O)(=O)c1ccc2[nH]c(=O)c3[nH]cc(C(=O)OCCC)c3c2c1 [Compound 156, 8-[(2-Methylamino-ethyl)-prop-2-ynyl-sulfamoyl]-4-oxo-4,5-dihydro-3H-pyrrolo[2,3-c]quinoline-1-propyl carboxylate hydrochloride] | < 0.1
CCCOC(=O)c1c[nH]c2c(=O)[nH]c3ccc(S(=O)(=O)N(C[C@H](C)NC(=O)OC(C)(C)C)C4CC4)cc3c12 [Compound 152, (S)-8-[(2-tert-Butoxycarbonylamino-propyl)-cyclopropyl-sulfamoyl]-4-oxo-4,5-dihydro-3H-pyrrolo[2,3-c]quinoline 1-propyl carboxylate] | 0.1 to 1
CCOC(=O)c1c[nH]c2c(=O)[nH]c3ccc(S(=O)(=O)NC4CC5CCC(C4)N5)cc3c12 (stereo not shown) [Compound 122, 8-(8-Aza-bicyclo[3.2.1]oct-3-ylsulfamoyl)-4-oxo-4,5-dihydro-3H-pyrrolo[2,3-c]quinoline-1-ethyl carboxylate] | < 0.1
CN(c1ccc(F)cc1)S(=O)(=O)c1ccc2[nH]c(=O)c3[nH]cc(C(=O)OCCNC(=O)OC(C)(C)C)c3c2c1 [Compound 106, 2-tert-Butoxycarbonylaminoethyl 8-[(4-fluorophenyl)-methyl-sulfamoyl]-4-oxo-4,5-dihydro-3H-pyrrolo[2,3-c]quinoline-1-carboxylate] | 10 to 100
